For data set [1], the target named is T1, WT-TTR (Homo sapiens, UniProt P02766).
T1 construct: composed of 127-residue β-sheet-rich subunits; made in house; host or cells: E. coli
Put plainly: Acid-mediated WT-TTR fibril formation assay (turbidity at 400 nm). The data set is classed as biochemical. The note with it: for IC50: % fibril formation after 72 hours, read-out: IC50 (apparent), inhibition of WT-TTR amyloidogenesis. How it is done:
The mixtures were vortexed and incubated (maintained) for 18 hours at 25° C.

The nature of data set [2]: Quantum yield measurement in buffer. The format is physicochemical. The protocol:
(§1) The covalent TTR modifier A1 or A2 or the non-covalent TTR ligand B2 (15 μL of a 1.44 mM solution in DMSO, final concentration: 7.2 μM) was added to 3 mL of a solution of WT-TTR homotetramer (0.2 mg/mL, 3.6 μM) in 10 mM phosphate, 100 mM KCl and 1 mM EDTA (pH 7.0 phosphate buffer). The samples were vortexed, and incubated for 18 hours at 25° C. Quantum yields were measured by following the instructions at the web site: jobinyvon.com/usadivisions/Fluorescence/applications/quantumyieldstrad.pdf. Quinine bisulfate in 0.5 M H2SO4 was used as a reference for comparison (Φf=0.546). [Crosby et al., J. Phys. Chem. 1971, 75, 991-1024.]

A short description of data set [3]: Photoisomerization upon irradiation (312 nm, 10 seconds). The data set is classed as physicochemical. The protocol:
Although TTR can bind to small molecules composed of two aromatic rings when the tethered rings are up to 40° out of plane {based on TTR-stilbene crystal structures [Klabunde et al., Nat. Struct. Biol. 2000, 7, 312-321; Connelly et al., Curr. Opin. Struc. Biol. 2010, 20, 54-62; Johnson et al., J. Med. Chem. 2008, 51, 6348-6358; Choi et al., J. Am. Chem. Soc. 2010, 132, 1359-1370; Choi et al., Nat. Chem. Biol. 2010, 6, 133-139; Baures et al., Bioorg. Med. Chem. 1998, 6, 1389-1401; and Baures et al., Bioorg. Med. Chem. 1999, 7, 1339-1347]}, it would be energetically unfavorable to bind the excited singlet state in a conformation where the two aryl rings are oriented perpendicular to one another. Thus, we propose that the increase in fluorescence quantum yield of B2 from 0.09 in buffer to 0.55 in complex with TTR results from the resculpted excited singlet state energy surface of the stilbene in complex with TTR, such that the trans-conformer is the only state of relatively low potential energy [Gorner, H.; Kuhn, H. J. Adv, Photochem. 1995, 19, 1-117; Malkin et al., J. Phys. Chem. 1964, 68, 1153-1163; Saltiel, J. J. Am. Chem. Soc. 1967, 89, 1036-1037; Saltiel et al., J. Am. Chem. Soc. 1972, 94, 6445-6457; Saltiel et al., J. Am. Chem. Soc. 1979, 101, 2982-2996; and Saltiel et al., J. Am. Chem. Soc. 1968, 90, 4759-4760] inhibiting photoisomerization-based relaxation of B2. That B2 binding to TTR inhibits B2 photoisomerization is consistent with the observation that the irradiation of B2 in buffer (Life Technologies, TFX-35M, 312 nm) for 10 seconds affords 60% of the cis isomer, along with other minor photoreaction products, whereas irradiation of B2 bound to TTR yields only 20% cis isomer.
It appears that the increase in fluorescence quantum yield of A2 from 0.00 in buffer to 0.27 in the TTR-(stilbene)n≦2 conjugate is only partly explained by the mechanism proposed for B2 [Gorner, H.; Kuhn, H. J. Adv, Photochem. 1995, 19, 1-117; Malkin et al., J. Phys. Chem. 1964, 68, 1153-1163; Saltiel, J. J. Am. Chem. Soc. 1967, 89, 1036-1037; Saltiel et al., J. Am. Chem. Soc. […]

Data set [4] deals with WT-TTR in transfected HeLa cells. Put plainly: Confocal fluorescence imaging of WT-TTR in transfected HeLa cells. The format is cell-based, human. The settings on record: A2 10 μM, 1 hour. How it is done:
Secreted WT-TTR was produced in HeLa cells by transient transfection and the cells were treated with A2 for 1 hour prior to imaging using confocal fluorescence microscopy. The expression of WT-TTR in the HeLa cells after transient transfection was confirmed using western blot analysis, as was the absence of TTR in the empty vector control. […] TTR conjugate fluorescence co-localized with calnexin indirect immunofluorescence, a marker for the endoplasmic reticulum (ER), confirming that WT-TTR within the secretory pathway is being observed. TTR conjugate fluorescence is also expected in the Golgi and in secretory vesicles, explaining why TTR conjugate fluorescence is observed in organelles in addition to the ER.
HeLa cells were plated on cover slips in DMEM containing 10% FBS at 37° C. under 5% CO2 the day before they were transfected with pcDNA3.1(+)-empty vector or pcDNA3.1(+)-WT-TTR using […] (Roche) according to the manufacturer's instructions. After 48 hours, the cells were washed with PBS twice before adding fresh DMEM (without FBS) with A2 (final concentration: 10 μM), and the cells were incubated at 37° C. for 1 hour. After two washes with PBS, the cells were fixed at 25° C. for 15 minutes with 3.7% (w/v) paraformaldehyde in PBS. […]

The target in data set [5] is T1, WT-TTR. The data set can be described thus: Quantum yield measurement with WT-TTR. The format is physicochemical. The settings on record: compound 7.2 μM. How it is done: as §1

The structures appear in SMILES notation. Like-named read-outs stand apart in the source and are kept apart here.

What is called IC50 is the concentration at which inhibition is half-maximal. Consider `Cc1cc(/C=C/c2cccc(C(=O)Sc3ccccc3)c2)cc(C)c1O` [Compound 2, (E)-S-phenyl 3-(4-hydroxy-3,5-dimethylstyryl)benzothioate], for which the IC50 in data set [1] (WT-TTR 3.6 μM) was 1960 to 2260 nM; in data set [1] (WT-TTR […]), 2000 nM. In addition, in data set [1] (WT-TTR […], compound 7.2 μM, pH 4.4, 72 hours, 37° C.), the “% Fibril Formation 7.2 μM (WT-TTR)” value was determined as 2%. In data set [1] (WT-TTR […], compound […], pH 4.4, 72 hours, 37° C.), the “% Fibril Formation […] (WT-TTR)” value is reported as 16%.
`Cc1cc(/C=C/c2cc(C(=O)Sc3ccc(F)cc3)cc(N(C)C)c2)cc(C)c1O` [Compound A2, (E)-S-4-fluorophenyl 3-(dimethylamino)-5-(4-hydroxy-3,5-dimethylstyryl)-benzothioate]: in data set [2], the “fluorescence quantum yield in buffer” value was 0.00. Moreover, the “photoisomerization upon irradiation in buffer (in words)” value in data set [3] is on record as “does not readily form the cis isomer”. For the same compound, the “conjugate fluorescence in HeLa cells expressing WT-TTR” value in data set [4] is reported as “strong conjugate fluorescence”. Besides, in data set [5], the “fluorescence quantum yield in complex or conjugate with TTR” value is on record as 0.27.

These data come from patent publication US8703815B2, “Small molecules that covalently modify transthyretin” (The Scripps Research Institute, priority 2009, dated 2014).
